The test system of one series is HT-1080-FAP tumor. In words: PET/CT imaging in HT-1080-FAP tumor-bearing mouse model. It counts as in vivo. The conditions noted are these: ^68Ga label, 18.5 MBq via tail vein, p<0.005. How it is done:
Mouse model: Nu/Nu mice (SPF grade) were purchased from Beijing Charles River Laboratories (China) and injected subcutaneously with HT-1080-FAP cells to construct a tumor model with high FAP expression.
All PET/CT scans were carried out on Mediso nanoScan® PET 122S small animal PET/CT.
After a certain number of HT-1080-FAP tumor mice were taken and injected via the tail vein with 7.4-18.5 MBq of ^68Ga/^86Y-FAPI-04 (control) and ^68Ga/^86Y-FAPI-CB series molecules at specified time points (Note: the injection of the control and investigation molecules was separated apart by at least five half-lives of the nuclide to ensure that the radioactivity of the previous probe had almost completely decayed and was essentially completely metabolized), imaging was carried out at specified time points. In some examples, the mice were anesthetized and then sacrificed by neck breaking at a certain time point. Organs were dissected and taken for radioactivity measurement.
A ^68Ge-^68Ga generator was eluted with 5 mL of 0.6 M high-purity hydrochloric acid to obtain a Ga-68 hydrochloric acid solution. 1 mL of the Ga-68 solution after elution was taken, and 100 μL of 3 M sodium hydroxide and 130 μL of 3M sodium acetate were added to adjust the acidity to a final pH of 4.0. 12 μg of FAPI-CB-00 compound was added, and the reaction mixture was heated to 70° C. and maintained for 20 min. […]

The subject of the next series is HT-1080-FAP cells. In words: Determination of IC50 in cell experiment (competition with ^68Ga-FAPI-04). The series is classed as cell-based. The note with it: Homo sapiens; vs 0.75 nM ^68Ga-FAPI-04, 37° C., 1 hour. The method, then:
Cell model: A human fibrosarcoma cell line (HT-1080-FAP) with high FAP expression was constructed by transfection of an FAP plasmid into a human fibrosarcoma cell line (HT-1080) by WuXi Biologics (China).
HT-1080-FAP cells were inoculated into a 24-well plate 24 hours in advance, with the density being about 30% (calculated and estimated), 10^5 cells (countable) per well. 0.5 mL of a complete medium was added. The medium was changed to a serum-free medium. 12 groups of FAPI-CB-01 solutions with a concentration gradient of 0-5000 nM were set up, with internal replicates n=4 for each group. […] 0.75 nM ^68Ga-FAPI-04 was added to each well, followed by incubation at 37° C. for 1 hour. After washing twice with cold PBS and lysis, the radioactivity count was measured.

Each structure is given as a SMILES string.

With `N#C[C@@H]1CC(F)(F)CN1C(=O)CNC(=O)c1ccnc2ccc(OCCCN3CCN(C(=O)[C@H](CCCCNC(=O)c4ccc(OS(=O)(=O)F)cc4)NC(=O)CN4CCN(CC(=O)O)CCN(CC(=O)O)CCN(CC(=O)O)CC4)CC3)cc12` [FAPI-CB-01], in the series with HT-1080-FAP tumor, the “improvement of maximum standard tumor uptake value (SUVmax) compared with FAPI-04” value is recorded as “about 2 times”. The compound further gave an IC50 with HT-1080-FAP cells of 11.6 ± 0.32 nM.

One may read the IC50 as the concentration needed to halve the response being measured. A higher IC50 goes with weaker potency.

Values taken from US20260137820A1, “TRIFUNCTIONAL COMPOUND AND USE THEREOF” (PEKING UNIVERSITY, priority 2022, published 2026).
